Test results published in patent US20260118350A1, “Fluorescent Probes for Peroxidase-Mediated Fluorescent Signal Amplification” (Seoul National University R&DB Foundation, priority 2024, published 2026).

Columns and labels:
[1] = tested on: HeLa cells transiently expressing TMEM192-V5-APEX2; assay: Lysosome diameter and lysosome-mitochondria contact under lysosomal stressors (JFT1 labeling by TMEM192-V5-APEX2); format: cell-based, Human; conditions: for fold increase of lysosomal diameter vs DMSO treatment / mean lysosomal diameter: BFA 100 nM or U18666A 2 μg/ml, 18 h; for mitochondria-lysosome co-localization: HeLa cells co-expressing mito-mEosEM and TMEM192-V5-APEX2; for mean lysosomal diameter: mean (±SEM)
Protocol: Fluorescently labeled lysosome (JFT1-labeled or Lysotracker Red, RFP channel) and mitochondria (mito-mEosEM, GFP channel) area were analyzed using Fiji/ImageJ (National Institutes of Health, USA). Area corresponding to the colocalization of lysosome-mitochondria were delimited manually by thresholding keeping the same threshold for control. The colocalized area was measured for 5 cells in each group. To measure lysosome diameter, we utilized Fiji/ImageJ. Initially, the images were converted to 8-bit and the pixel measurements were calibrated using a scale bar. Circular lysosomes were then selected and a line representing the diameter of each selected lysosome was drawn, referencing the limiting membrane according to the JFT1 fluorescence signal. Subsequently, we utilized the “analyze and measure” feature of ImageJ, which generates a table with various parameters such as area and length. To convert the length from pixels to micrometers, we applied the following formula: (pixel diameter/pixels on the scale bar)×10 μm. Once the values were converted, they were plotted and statistical analysis for unpaired t-test was performed using Prism GraphPad software ([…] et al., 2021). HeLa cells transiently expressing TMEM192-V5-APEX2 were plated on coverslips (thickness no. 1.5, radius 18 mm). The cells were then treated with DMSO or U18666A (2 ug/ml), Bafilomycin A1 (100 nM) in DMEM for 18 h at 37° C. and washed three times with cold DPBS. The cells were fixed in 4% paraformaldehyde for 15 min at room temperature. Next, JFT1 labeling was done using 100 μM of the probe and 1 mM H2O2 for 5 min. Reaction was quenched and cells were permeabilized for immunofluorescence imaging with cold methanol for 5 min at -20° C., followed by washing with DPBS and blocking for 1 h with 2% bovine serum albumin in DPBS at room temperature.

TOM20-V5-APEX2 = assay: Live-cell APEX labeling using JF probes; format: cell-based, Human; conditions: 5 min pre-incubation, 1 mM H2O2 1 min, TOM20-V5-APEX2-expressing cells
Protocol: To visualize various APEX2-POIs in live cells, JF or JFA (50-100 μM) and 1 mM H2O2 were treated to APEX2-POI expressing cells during the live stage. After treatment, cells were washed thrice with DPBS and then fixed with 4% PFA in 1×DPBS for 15 minutes at room temperature. For immuno-fluorescence imaging, cells were permeabilized with −20° C. methanol for 5 minutes, followed by the standard immunofluorescence staining protocol. To detect JF or JFA fluorescence and immunofluorescence, we used the GFP channel (excitation at 488 nm), RFP channel (excitation at 561 nm), and Cy5 channel (excitation at 647 nm) of a confocal light microscope (FV3000, Olympus, Japan). HeLa cells were used for imaging experiments.
Further, the APEX reaction in live cells utilizing the JF probes in cells expressing TOM20-V5-APEX2 at the cytosolic face of the outer mitochondrial membrane (OMM) were examined. Each JF probe (JF, JFA, JFT1, JFT2, and JFT3) was pre-incubated with the cells for 5 min, followed by the addition of 1 mM H2O2 and incubation for 1 min to activate the peroxidase.

endogenous peroxidases = assay: Reaction with endogenous peroxidases in live cells; format: cell-based; conditions: high concentrations (≥100 μM) for 1 h in live cells
Protocol: However, our focus was on utilizing JFT for CLEM imaging under fixed conditions. For live-cell APEX2 labeling experiments, JF or JFA (50-100 μM) was incubated with 1 mM H2O2 for 1 min. Both JF and JFA are cell-permeable and can react with APEX2 under live-cell conditions. […] We observed that a 5-min incubation of high concentrations of JFT1 ([…]) and H2O2 (0.5-1 mM) can generate selective FLEX labeling where APEX2-POIs are expressed (see Methods for details). For live-cell experiments, it would be highly advantageous to further develop JF probes with negligible activity against endogenous peroxidase in live-cell conditions while still maintaining reactivity for the APEX or HRP reaction. Since JFT was synthesized from JFA, this strategy opens up the possibility of generating further variations in JFT or other JF-based probes using various azido-click moieties. This approach could lead to the development of improved probes with enhanced performance for live-cell imaging applications.

HRP = molecular target: T1, HRP (Armoracia rusticana, UniProt P00433); assay: Polymerization of JF catalyzed by HRP; format: biochemical, horseradish
T1 sequence (P00433 31-338 limits assumed): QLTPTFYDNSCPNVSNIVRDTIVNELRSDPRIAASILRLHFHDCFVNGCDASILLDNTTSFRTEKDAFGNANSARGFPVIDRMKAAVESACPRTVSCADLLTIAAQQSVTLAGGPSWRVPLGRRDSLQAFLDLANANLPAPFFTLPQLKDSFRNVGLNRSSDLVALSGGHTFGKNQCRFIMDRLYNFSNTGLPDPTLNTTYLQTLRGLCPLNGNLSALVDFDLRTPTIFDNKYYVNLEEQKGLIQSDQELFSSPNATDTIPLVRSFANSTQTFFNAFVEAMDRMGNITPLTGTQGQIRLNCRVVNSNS
Protocol: JF (400 μM) was prepared by dissolving the powder in DMSO. To induce the polymerization of JF, 10 μM of HRP was added along with 2 mM H2O2. JF-precipitate starts forming after 30 minutes of incubation with HRP and H2O2. This reaction was carried out at room temperature for 24 h to acquire the polymerized JF. The mixture was centrifuged at 15,000 g for 10 min to separate the polymerized JF product from non-reacted JF.

| Structure (SMILES) | fold increase of lysosomal diameter vs DMSO treatment [1] [fold] | mitochondria-lysosome co-localization [1] | mean lysosomal diameter [1] [μm] | fluorescence staining in live cells (TOM20-V5-APEX2) | reactivity with endogenous peroxidases (endogenous peroxidases) | precipitate formation upon HRP-mediated reaction (HRP; HRP and H2O2) | time at which JF-precipitate starts forming (HRP; JF 400 μM, 10 μM HRP, 2 mM H2O2, room temperature) [min] |
| --- | --- | --- | --- | --- | --- | --- | --- |
| CO/C1=C\C(C)=C\[C@@H](C)[C@@H](O)[C@@H](C)C/C(C)=C/C=C/[C@H](OC)[C@@H]([C@@H](C)[C@@H](O)[C@H](C)[C@@]2(O)C[C@@H](O)[C@H](C)[C@@H](C(C)C)O2)OC1=O [Bafilomycin A1] | 2.7 | more merged patterns | 1.20 |  |  |  |  |
| CC[n+]1c(/C=C/c2ccc(O)cc2)sc2ccccc21 [JF, (E)-3-ethyl-2-(4-hydroxystyryl)benzo[d]thiazol-3-ium, reference compound] |  |  |  | red fluorescence stains | can also react with endogenous peroxidases | macroscopic precipitate deposition | 30 |
| C#CC[n+]1c(/C=C/c2ccc(O)cc2)sc2ccccc21 [JFA, (E)-2-(4-hydroxystyryl)-3-(prop-2-yn-1-yl)benzo[d]thiazol-3-ium] |  |  |  | red fluorescence stains | can also react with endogenous peroxidases |  |  |
| CCN(CC)CCO[C@H]1CC[C@@]2(C)C(=CC[C@@H]3[C@@H]2CC[C@]2(C)C(=O)CC[C@@H]32)C1 [U18666A] | 2.2 | enhanced co-localization | 0.87 |  |  |  |  |
